From article PMC11347161, “Sequence diversity of apidaecin-like peptides arresting the terminating ribosome” (Nucleic Acids Research, 2024)
≈ marks a conversion by molar mass, not a printed value. Residues, ends and D or L forms follow the SMILES beside them. No end group written: not given here. *: point of attachment. Orn(α-tetramethylguanidino) = CN(C)C(=N[C@@H](CCCN)C(=O)*)N(C)C

System: E. coli, BL21 cells
Format: cell-based
Conditions: E. coli BL21, broth microdilution, conducted in triplicate; for MIC, TSB: 33% TSB medium; for MIC, LB: LB medium; for MIC, RPMI/Serum: RPMI/Serum medium (RPMI-1640:MHB:FBS = 100:5:20)
Experimental: The E. coli strain CA244 (lacZ125(Am), e14-, trpA49(Am), relA1, spoT1) was obtained from Escherichia coli Genetic Stock Center. The E. coli BL21(DE3) electrocompetent cells were from Sigma. The following media and components were implemented for bacteria growth: lysogeny broth (LB), minimal M9 medium, Tryptic Soy Broth (TSB), Roswell Park Memorial Institute medium 1640 (RPMI-1640), Mueller Hinton Broth (MHB), Fetal Bovine Serum (FBS). For various experiments E. coli cells were grown either in LB, in 33% TSB ([21]), in M9 medium supplemented with 1% Glycerol, 1 mM MgSO4, 0.1 mM CaCl2 and 10 μg/ml thiamine, or in RPMI/Serum (RPMI-1640:MHB:FBS = 100:5:20) ([23]).
The minimal inhibitory concentration (MIC) test was performed using the broth microdilution method, adapted from the previously described procedure ([28]). The MIC tests were conducted in triplicate either in LB, 33% TSB or RPMI/Serum media.
In order to quantitatively assess the antimicrobial activity of the synthesized peptides identified by both, the negative and positive selection strategies, we determined their minimal inhibitory concentrations (MICs) for the E. coli BL21 cells in three different media: LB, as a standard laboratory medium, 33% TSB, as a medium in which PrAMPs show increased antibacterial properties ([21]), and in the more therapeutically relevant RPMI/serum media ([23]) (Table 1). […] It appears, therefore, that the positive selection strategy is more prone to identifying biologically active peptides in comparison with the negative selection approaches. Furthermore, it became apparent that some multiple substitutions can even improve the antibacterial properties of the Api-like peptides.

CC[C@H](C)[C@H](NC(=O)[C@H](Cc1ccc(O)cc1)NC(=O)[C@@H](NC(=O)[C@@H]1CCCN1C(=O)[C@H](CCCNC(=N)N)NC(=O)[C@H](CC(N)=O)NC(=O)[C@H](CCCCN)NC(=O)[C@H](CCCN)N=C(N(C)C)N(C)C)C(C)C)C(=O)N[C@@H](CC(N)=O)C(=O)N[C@@H](CCC(N)=O)C(=O)N1CCC[C@H]1C(=O)N[C@@H](CCCNC(=N)N)C(=O)N[C@@H](CCC(=O)O)C(=O)N1CCC[C@H]1C(=O)N[C@@H](Cc1c[nH]cn1)C(=O)N1CCC[C@H]1C(=O)N[C@@H](CCCNC(=N)N)C(=O)N[C@@H](CC(C)C)C(=O)O [Peptide K2N9E13] ({Orn(α-tetramethylguanidino)}-KNRPVYINQPREPHPRL-OH; C-terminus assumed)
MIC, TSB: >64 µM | MIC, LB: >64 µM | MIC, RPMI/Serum: >64 µM

CC(C)C[C@H](NC(=O)[C@H](CCCNC(=N)N)NC(=O)[C@H](CC(C)C)NC(=O)[C@H](Cc1c[nH]cn1)NC(=O)[C@@H]1CCCN1C(=O)CNC(=O)[C@H](CC(C)C)NC(=O)[C@@H]1CCCN1C(=O)[C@H](CCC(N)=O)NC(=O)[C@@H]1CCCN1C(=O)[C@H](CC(C)C)NC(=O)[C@H](Cc1ccc(O)cc1)NC(=O)[C@@H](NC(=O)[C@@H]1CCCN1C(=O)[C@H](CCCNC(=N)N)NC(=O)[C@H](CC(N)=O)NC(=O)[C@H](CC(N)=O)NC(=O)[C@H](CCCN)N=C(N(C)C)N(C)C)C(C)C)C(=O)O [Peptide L8L12G13L16] ({Orn(α-tetramethylguanidino)}-NNRPVYLPQPLGPHLRL-OH; C-terminus assumed)
MIC, TSB: >64 µM | MIC, LB: >64 µM | MIC, RPMI/Serum: >64 µM

CC(C)C[C@H](NC(=O)[C@H](CCCNC(=N)N)NC(=O)[C@@H]1CCCN1C(=O)[C@H](Cc1c[nH]cn1)NC(=O)[C@H](Cc1ccc(O)cc1)NC(=O)[C@@H]1CCCN1C(=O)[C@H](CCCNC(=N)N)NC(=O)[C@@H]1CCCN1C(=O)[C@@H](NC(=O)[C@H](CS)NC(=O)[C@H](Cc1c[nH]c2ccccc12)NC(=O)[C@H](CCC(N)=O)NC(=O)[C@@H](NC(=O)[C@H](CCCCN)NC(=O)[C@H](CCCNC(=N)N)NC(=O)[C@H](CC(N)=O)NC(=O)[C@H](CC(N)=O)NC(=O)[C@H](CCCN)N=C(N(C)C)N(C)C)C(C)C)C(C)C)C(=O)O [K5Q7W8C9V10Y14] ({Orn(α-tetramethylguanidino)}-NNRKVQWCVPRPYHPRL-OH; C-terminus assumed)
MIC, TSB: >64 µM | MIC, LB: >64 µM | MIC, RPMI/Serum: >64 µM

CC(C)C[C@H](NC(=O)[C@@H]1CCCN1C(=O)[C@H](CCC(N)=O)NC(=O)[C@@H]1CCCN1C(=O)[C@H](CC(C)C)NC(=O)[C@H](Cc1ccc(O)cc1)NC(=O)[C@@H](NC(=O)[C@@H]1CCCN1C(=O)[C@H](CCCNC(=N)N)NC(=O)[C@H](CC(N)=O)NC(=O)[C@H](CC(N)=O)NC(=O)[C@H](CCCN)N=C(N(C)C)N(C)C)C(C)C)C(=O)NCC(=O)N1CCC[C@H]1C(=O)NCC(=O)N1CCC[C@H]1C(=O)N[C@@H](CCCNC(=N)N)C(=O)N[C@@H](C)C(=O)O [L8L12G13G15A18] ({Orn(α-tetramethylguanidino)}-NNRPVYLPQPLGPGPRA-OH; C-terminus assumed)
MIC, TSB: >64 µM | MIC, LB: >64 µM | MIC, RPMI/Serum: >64 µM

CC[C@H](C)[C@H](NC(=O)[C@H](Cc1ccc(O)cc1)NC(=O)[C@H](CCSC)NC(=O)[C@@H]1CCCN1C(=O)[C@H](CCCNC(=N)N)NC(=O)[C@H](CC(N)=O)NC(=O)[C@H](CC(N)=O)NC(=O)[C@H](CCCN)N=C(N(C)C)N(C)C)C(=O)N[C@@H](C)C(=O)N[C@@H](CCC(N)=O)C(=O)N1CCC[C@H]1C(=O)N[C@@H](CCCNC(=N)N)C(=O)N1CCC[C@H]1C(=O)N[C@@H](Cc1ccc(O)cc1)C(=O)N[C@@H](Cc1c[nH]cn1)C(=O)N1CCC[C@H]1C(=O)N[C@@H](CCCNC(=N)N)C(=O)N[C@@H](CC(C)C)C(=O)O [Peptide M6A9Y14] ({Orn(α-tetramethylguanidino)}-NNRPMYIAQPRPYHPRL-OH; C-terminus assumed)
MIC, TSB: 16 µM (≈ 37.4 µg/mL) | MIC, LB: >64 µM | MIC, RPMI/Serum: 16 µM (≈ 37.4 µg/mL)

CSCC[C@H](NC(=O)[C@H](CCCNC(=N)N)NC(=O)[C@@H]1CCCN1C(=O)[C@H](Cc1ccc(O)cc1)NC(=O)[C@@H]1CCCN1C(=O)[C@H](Cc1ccccc1)NC(=O)[C@H](Cc1ccc(O)cc1)NC(=O)[C@@H](NC(=O)[C@@H]1CCCN1C(=O)[C@H](CCCNC(=N)N)NC(=O)[C@H](C)NC(=O)[C@H](CC(N)=O)NC(=O)[C@H](CCCN)N=C(N(C)C)N(C)C)C(C)C)C(=O)N1CCC[C@H]1C(=O)N[C@@H](Cc1c[nH]cn1)C(=O)N1CCC[C@H]1C(=O)N[C@@H](CCCNC(=N)N)C(=O)N[C@@H](CC(C)C)C(=O)O [Peptide A3F8Y10M13] ({Orn(α-tetramethylguanidino)}-NARPVYFPYPRMPHPRL-OH; C-terminus assumed)
MIC, TSB: 16 µM (≈ 37.2 µg/mL) | MIC, LB: >64 µM | MIC, RPMI/Serum: 8 µM (≈ 18.6 µg/mL)

GNNRPVCAPQPAWPTGRL [C7A8A12W13T15G16]
MIC, TSB: >64 µM | MIC, LB: >64 µM | MIC, RPMI/Serum: >64 µM

GNNRPVYIPKPPTPHPRL [Peptide K10P12T13]
MIC, TSB: 1 µM | MIC, LB: 64 µM | MIC, RPMI/Serum: 8 µM

GKNRPVYIYQPKPPIPRL [Peptide K2Y9K12I15]
MIC, TSB: >64 µM | MIC, LB: >64 µM | MIC, RPMI/Serum: >64 µM

CC[C@H](C)[C@H](NC(=O)[C@H](Cc1ccc(O)cc1)NC(=O)[C@@H](NC(=O)[C@@H]1CCCN1C(=O)[C@H](CCCNC(=N)N)NC(=O)[C@H](CC(N)=O)NC(=O)[C@H](CC(N)=O)NC(=O)[C@H](CCCN)N=C(N(C)C)N(C)C)C(C)C)C(=O)N1CCC[C@H]1C(=O)N[C@@H](CCCNC(=N)N)C(=O)N1CCC[C@H]1C(=O)N[C@@H](CCCNC(=N)N)C(=O)N1CCC[C@H]1C(=O)N1CCC[C@H]1C(=O)N[C@@H](Cc1c[nH]cn1)C(=O)N1CCC[C@H]1C(=O)N[C@@H](CCCNC(=N)N)C(=O)N[C@@H](CC(C)C)C(=O)O [Api 137, reference compound] ({Orn(α-tetramethylguanidino)}-NNRPVYIPRPRPPHPRL-OH; N-terminus and C-terminus assumed)
MIC, TSB: 0.25 µM (≈ 0.573 µg/mL) | MIC, LB: 4 µM (≈ 9.17 µg/mL) | MIC, RPMI/Serum: 0.0625 µM (≈ 0.143 µg/mL)

CC[C@H](C)[C@H](NC(=O)[C@H](Cc1ccc(O)cc1)NC(=O)[C@@H](NC(=O)[C@H](CCCNC(=N)N)NC(=O)[C@H](CCCNC(=N)N)NC(=O)[C@H](CC(N)=O)NC(=O)[C@H](CC(N)=O)NC(=O)[C@H](CCCN)N=C(N(C)C)N(C)C)C(C)C)C(=O)N1CCC[C@H]1C(=O)N[C@@H](CCC(N)=O)C(=O)N1CCC[C@H]1C(=O)N[C@@H](CCCNC(=N)N)C(=O)N[C@@H](CC(N)=O)C(=O)N1CCC[C@H]1C(=O)N[C@@H](Cc1c[nH]cn1)C(=O)N[C@@H](CC(C)C)C(=O)N[C@@H](CCCNC(=N)N)C(=O)N[C@@H](CC(C)C)C(=O)O [Peptide R5N13L16] ({Orn(α-tetramethylguanidino)}-NNRRVYIPQPRNPHLRL-OH; C-terminus assumed)
MIC, TSB: >64 µM | MIC, LB: >64 µM | MIC, RPMI/Serum: >64 µM

GNNRPGYIPPPRPPHPRL [Peptide G6P10]
MIC, TSB: 0.5 µM | MIC, LB: 8 µM | MIC, RPMI/Serum: 4 µM

CC[C@H](C)[C@H](NC(=O)[C@H](Cc1ccc(O)cc1)NC(=O)[C@@H](NC(=O)[C@H](Cc1c[nH]c2ccccc12)NC(=O)[C@H](CCCNC(=N)N)NC(=O)[C@H](CC(N)=O)NC(=O)[C@H](CC(N)=O)NC(=O)[C@H](CCCN)N=C(N(C)C)N(C)C)C(C)C)C(=O)N[C@@H](CC(N)=O)C(=O)N[C@H](C(=O)N1CCC[C@H]1C(=O)N[C@@H](CCCNC(=N)N)C(=O)N[C@@H](CO)C(=O)N1CCC[C@H]1C(=O)N[C@@H](Cc1c[nH]cn1)C(=O)N1CCC[C@H]1C(=O)N[C@@H](CCCNC(=N)N)C(=O)N[C@@H](CC(C)C)C(=O)O)[C@@H](C)O [Peptide W5N9T10S13] ({Orn(α-tetramethylguanidino)}-NNRWVYINTPRSPHPRL-OH; C-terminus assumed)
MIC, TSB: >64 µM | MIC, LB: >64 µM | MIC, RPMI/Serum: >64 µM
